Key:
[1] = molecular target: C-C chemokine receptor type 5 (Homo sapiens, UniProt P51681); test: Antagonist activity at CCR5 (unknown origin) expressed in HEK293 cells co-expressing Galpha16 assessed as inhibition of RANTES-induced calcium flux preincubated for 10 mins followed by RANTES addition by fluo-4AM-based fluorescence assay; type: functional, cell-based
[2] = Cytotoxicity against human TZM-bl cells after 48 hrs by MTT assay; type: cell-based
[3] = Cmax in Sprague-Dawley rat at 20 mg/kg, po by LC-MS/MS analysis; type: ADME, organism-based; design: dose 20 mg/kg, route oral; conditions: in vivo
[4] = Tmax in Sprague-Dawley rat at 20 mg/kg, po by LC-MS/MS analysis; type: ADME, organism-based; conditions: in vivo
[5] = Half life in Sprague-Dawley rat at 20 mg/kg, po by LC-MS/MS analysis; type: ADME, organism-based; conditions: in vivo
[6] = AUC (0 to infinity) in Sprague-Dawley rat at 20 mg/kg, po by LC-MS/MS analysis; type: ADME, organism-based; design: dose 20 mg/kg, route oral, time infinity; conditions: in vivo
[7] = MRT in Sprague-Dawley rat at 20 mg/kg, po by LC-MS/MS analysis; type: ADME, organism-based; conditions: in vivo
[8] = Oral bioavailability in Sprague-Dawley rat at 20 mg/kg by LC-MS/MS analysis; type: ADME, organism-based; conditions: in vivo
[9] = Cmax in Sprague-Dawley rat at 10 mg/kg, iv by LC-MS/MS analysis; type: ADME, organism-based; design: dose 10 mg/kg, route intravenous; conditions: in vivo
[10] = Tmax in Sprague-Dawley rat at 10 mg/kg, iv by LC-MS/MS analysis; type: ADME, organism-based; conditions: in vivo
[11] = Half life in Sprague-Dawley rat at 10 mg/kg, iv by LC-MS/MS analysis; type: ADME, organism-based; conditions: in vivo
[12] = AUC (0 to infinity) in Sprague-Dawley rat at 10 mg/kg, iv by LC-MS/MS analysis; type: ADME, organism-based; design: dose 10 mg/kg, time infinity, route intravenous; conditions: in vivo
[13] = MRT in Sprague-Dawley rat at 10 mg/kg, iv by LC-MS/MS analysis; type: ADME, organism-based; conditions: in vivo
[14] = Clearance in Sprague-Dawley rat at 10 mg/kg, iv by LC-MS/MS analysis; type: ADME, organism-based; conditions: in vivo
[15] = molecular target: Voltage-gated inwardly rectifying potassium channel KCNH2 (Homo sapiens, UniProt Q12809); test: Inhibition of human ERG expressed in CHO cells at holding potential of -80 mV after 60 secs by patch clamp assay; type: cell-based
Cytochrome P450 1A2 = molecular target: T1, Cytochrome P450 1A2 (Homo sapiens, UniProt P05177); test: Inhibition of CYP1A2 (unknown origin); type: ADME
T1 sequence (P05177 whole entry): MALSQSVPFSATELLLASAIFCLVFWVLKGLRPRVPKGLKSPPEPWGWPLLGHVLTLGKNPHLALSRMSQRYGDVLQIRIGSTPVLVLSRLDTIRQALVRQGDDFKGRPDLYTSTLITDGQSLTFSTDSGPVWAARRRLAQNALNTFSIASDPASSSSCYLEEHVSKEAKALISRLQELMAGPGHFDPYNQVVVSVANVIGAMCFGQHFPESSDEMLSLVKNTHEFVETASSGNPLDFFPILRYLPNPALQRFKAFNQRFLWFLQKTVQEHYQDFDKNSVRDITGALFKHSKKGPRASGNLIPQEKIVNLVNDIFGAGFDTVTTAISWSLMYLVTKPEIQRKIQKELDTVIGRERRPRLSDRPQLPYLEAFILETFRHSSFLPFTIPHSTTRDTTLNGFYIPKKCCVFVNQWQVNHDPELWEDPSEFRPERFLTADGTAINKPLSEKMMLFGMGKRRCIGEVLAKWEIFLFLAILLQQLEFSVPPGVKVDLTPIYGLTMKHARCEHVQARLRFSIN

Cytochrome P450 2C9 = Cytochrome P450 2C9 (Homo sapiens, UniProt P11712); test: Inhibition of CYP2C9 (unknown origin); type: ADME
Cytochrome P450 2C19 = Cytochrome P450 2C19 (Homo sapiens, UniProt P33261); test: Inhibition of CYP2C19 (unknown origin); type: ADME
Cytochrome P450 2D6 = Cytochrome P450 2D6 (Homo sapiens, UniProt P10635); test: Inhibition of CYP2D6 (unknown origin); type: ADME
Cytochrome P450 3A4 [16] = molecular target: T2, Cytochrome P450 3A4 (Homo sapiens, UniProt P08684); test: Inhibition of CYP3A4 (unknown origin) using midazolam as substrate; type: ADME
Cytochrome P450 3A4 [17] = molecular target: T2, Cytochrome P450 3A4; test: Inhibition of CYP3A4 (unknown origin) using testosterone as substrate; type: ADME
in vitro [18] = conditions: human, TZM-bl cells
Description: Therapeutic index, ratio of CC50 for human TZM-bl cells to EC50 for CCR5-dependent HIV1 SF162 infected in human TZM-bl cells

in vitro [19] = conditions: human, PBMC
Description: Therapeutic index, ratio of CC50 for human PBMC to IC50 for CCR5-dependent HIV1 SF162 infected in human PBMC cells

in vitro [20] = conditions: human, HOS cells
Description: Therapeutic index, ratio of CC50 for human HOS cells to IC50 for CCR5-dependent HIV1 SF162 infected in human HOS cells

in vitro [21] = conditions: human, PBMC; remark: listed apart in the source
Description: Therapeutic index, ratio of CC50 for human PBMC to IC50 for CCR5-dependent HIV1 KM018 infected in human PBMC

in vitro [22] = conditions: human, PBMC; remark: listed apart in the source
Description: Therapeutic index, ratio of CC50 for human PBMC to IC50 for CCR5-dependent HIV1 Ba-L infected in human PBMC

in vitro [23] = conditions: human, HOS cells; remark: listed apart in the source
Description: Therapeutic index, ratio of CC50 for human HOS cells to IC50 for CCR5-dependent HIV1 Ba-L infected in human HOS cells

in vitro [24] = conditions: human, PM1 cells
Description: Therapeutic index, ratio of CC50 for human PM1 cells to IC50 for CCR5-dependent HIV1 Ba-L infected in human PM1 cells

[25] = tested on: Human immunodeficiency virus 1; test: microbe, parasite or virus in culture; conditions: Human immunodeficiency virus 1, SF162, TZM-bl, 48 h
Description: Antiviral activity against CCR5-dependent HIV1 SF162 infected in human TZM-bl cells assessed as reduction in virus infection measured after 48 hrs post infection by luciferase reporter gene assay

[26] = tested on: Human immunodeficiency virus 1; test: microbe, parasite or virus in culture; conditions: Human immunodeficiency virus 1, SF162, PBMC, 168 h
Description: Antiviral activity against CCR5-dependent HIV1 SF162 infected in human PBMC assessed as reduction in virus infection measured after 7 days by luciferase reporter gene assay

[27] = tested on: Human immunodeficiency virus 1; test: microbe, parasite or virus in culture; conditions: Human immunodeficiency virus 1, SF162, HOS, 120 h
Description: Antiviral activity against CCR5-dependent HIV1 SF162 infected in human HOS cells assessed as reduction in virus infection measured after 5 days by luciferase reporter gene assay

[28] = tested on: Human immunodeficiency virus 1; test: microbe, parasite or virus in culture; conditions: Human immunodeficiency virus 1, KM018, PBMC, 168 h
Description: Antiviral activity against CCR5-dependent HIV1 KM018 infected in human PBMC assessed as reduction in virus infection measured after 7 days by luciferase reporter gene assay

[29] = tested on: Human immunodeficiency virus 1; test: microbe, parasite or virus in culture; conditions: Human immunodeficiency virus 1, Ba-L, PBMC, 168 h
Description: Antiviral activity against CCR5-dependent HIV1 Ba-L infected in human PBMC assessed as reduction in virus infection measured 7 days by luciferase reporter gene assay

[30] = tested on: Human immunodeficiency virus 1; test: microbe, parasite or virus in culture; conditions: Human immunodeficiency virus 1, Ba-L, HOS, 120 h
Description: Antiviral activity against CCR5-dependent HIV1 Ba-L infected in human HOS cells assessed as reduction in virus infection measured after 5 days by luciferase reporter gene assay

[31] = tested on: Human immunodeficiency virus 1; test: microbe, parasite or virus in culture; conditions: Human immunodeficiency virus 1, Ba-L, PM1, 120 h
Description: Antiviral activity against CCR5-dependent HIV1 Ba-L infected in human PM1 cells assessed as reduction in virus infection measured after 5 days by luciferase reporter gene assay

C-C chemokine receptor type 5, sequence (P51681 whole entry): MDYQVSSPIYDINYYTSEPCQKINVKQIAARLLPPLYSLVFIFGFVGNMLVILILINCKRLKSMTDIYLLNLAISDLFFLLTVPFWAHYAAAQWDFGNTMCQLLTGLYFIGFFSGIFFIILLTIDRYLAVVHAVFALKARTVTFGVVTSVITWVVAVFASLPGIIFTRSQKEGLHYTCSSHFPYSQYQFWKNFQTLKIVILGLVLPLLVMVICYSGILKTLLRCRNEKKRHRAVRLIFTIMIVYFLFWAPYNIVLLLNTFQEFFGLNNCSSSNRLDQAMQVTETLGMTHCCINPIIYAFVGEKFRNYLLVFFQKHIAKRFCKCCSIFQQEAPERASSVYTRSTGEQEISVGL
T2 sequence (P08684 whole entry): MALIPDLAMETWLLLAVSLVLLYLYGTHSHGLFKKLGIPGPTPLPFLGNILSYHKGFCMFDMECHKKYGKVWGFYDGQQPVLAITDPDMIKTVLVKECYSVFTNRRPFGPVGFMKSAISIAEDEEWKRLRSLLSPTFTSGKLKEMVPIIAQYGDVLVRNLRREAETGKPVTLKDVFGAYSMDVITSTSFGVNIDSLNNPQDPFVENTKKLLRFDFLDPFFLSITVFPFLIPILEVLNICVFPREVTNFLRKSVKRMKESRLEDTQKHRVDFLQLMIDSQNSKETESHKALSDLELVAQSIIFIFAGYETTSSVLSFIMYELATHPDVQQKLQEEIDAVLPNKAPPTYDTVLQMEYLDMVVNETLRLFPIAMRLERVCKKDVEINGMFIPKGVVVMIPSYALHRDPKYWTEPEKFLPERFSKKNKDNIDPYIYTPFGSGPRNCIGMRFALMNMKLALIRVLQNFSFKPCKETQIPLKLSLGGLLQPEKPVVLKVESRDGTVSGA
Voltage-gated inwardly rectifying potassium channel KCNH2, sequence (Q12809 whole entry): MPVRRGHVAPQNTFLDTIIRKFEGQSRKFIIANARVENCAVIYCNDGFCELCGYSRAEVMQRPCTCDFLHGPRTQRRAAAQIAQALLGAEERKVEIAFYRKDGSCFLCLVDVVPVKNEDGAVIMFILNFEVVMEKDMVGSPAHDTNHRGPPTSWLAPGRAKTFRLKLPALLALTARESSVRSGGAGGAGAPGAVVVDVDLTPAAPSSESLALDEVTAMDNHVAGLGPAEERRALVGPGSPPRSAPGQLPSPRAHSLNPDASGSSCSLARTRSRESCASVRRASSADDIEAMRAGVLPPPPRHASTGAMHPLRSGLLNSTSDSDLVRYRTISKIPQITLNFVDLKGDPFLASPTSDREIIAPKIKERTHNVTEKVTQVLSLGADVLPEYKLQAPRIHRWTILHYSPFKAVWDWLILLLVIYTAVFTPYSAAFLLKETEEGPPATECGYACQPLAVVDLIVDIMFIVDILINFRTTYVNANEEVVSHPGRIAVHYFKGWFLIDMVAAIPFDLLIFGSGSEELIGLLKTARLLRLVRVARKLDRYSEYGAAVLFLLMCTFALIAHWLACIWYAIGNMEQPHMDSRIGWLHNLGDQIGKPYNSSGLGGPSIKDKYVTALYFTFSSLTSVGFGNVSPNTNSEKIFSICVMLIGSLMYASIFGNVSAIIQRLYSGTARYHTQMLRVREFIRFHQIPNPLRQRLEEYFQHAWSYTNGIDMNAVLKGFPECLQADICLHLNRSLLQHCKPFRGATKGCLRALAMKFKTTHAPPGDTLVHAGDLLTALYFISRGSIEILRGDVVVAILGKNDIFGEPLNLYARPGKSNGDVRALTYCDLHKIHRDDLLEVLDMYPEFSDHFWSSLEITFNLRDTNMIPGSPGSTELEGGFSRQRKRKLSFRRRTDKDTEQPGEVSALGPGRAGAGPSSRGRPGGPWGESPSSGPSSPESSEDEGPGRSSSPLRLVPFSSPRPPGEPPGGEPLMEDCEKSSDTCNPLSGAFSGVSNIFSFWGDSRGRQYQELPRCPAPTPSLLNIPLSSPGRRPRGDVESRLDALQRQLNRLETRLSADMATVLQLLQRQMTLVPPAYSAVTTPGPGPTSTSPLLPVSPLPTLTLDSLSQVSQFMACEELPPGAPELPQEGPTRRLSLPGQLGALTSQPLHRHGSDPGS
Cytochrome P450 2C19, sequence (P33261 whole entry): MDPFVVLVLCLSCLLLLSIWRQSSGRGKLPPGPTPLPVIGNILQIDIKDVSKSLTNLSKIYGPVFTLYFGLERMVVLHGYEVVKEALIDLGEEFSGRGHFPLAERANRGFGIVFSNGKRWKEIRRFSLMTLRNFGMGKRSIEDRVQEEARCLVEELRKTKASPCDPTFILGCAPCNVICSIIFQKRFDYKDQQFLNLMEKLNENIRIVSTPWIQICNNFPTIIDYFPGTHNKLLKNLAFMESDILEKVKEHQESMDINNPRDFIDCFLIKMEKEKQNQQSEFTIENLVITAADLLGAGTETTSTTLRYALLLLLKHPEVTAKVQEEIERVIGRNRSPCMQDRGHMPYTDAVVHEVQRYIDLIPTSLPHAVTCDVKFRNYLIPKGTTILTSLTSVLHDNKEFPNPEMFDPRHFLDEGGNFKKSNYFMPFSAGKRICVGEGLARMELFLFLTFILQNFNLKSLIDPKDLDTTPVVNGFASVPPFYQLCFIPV
Cytochrome P450 2D6, sequence (P10635 whole entry): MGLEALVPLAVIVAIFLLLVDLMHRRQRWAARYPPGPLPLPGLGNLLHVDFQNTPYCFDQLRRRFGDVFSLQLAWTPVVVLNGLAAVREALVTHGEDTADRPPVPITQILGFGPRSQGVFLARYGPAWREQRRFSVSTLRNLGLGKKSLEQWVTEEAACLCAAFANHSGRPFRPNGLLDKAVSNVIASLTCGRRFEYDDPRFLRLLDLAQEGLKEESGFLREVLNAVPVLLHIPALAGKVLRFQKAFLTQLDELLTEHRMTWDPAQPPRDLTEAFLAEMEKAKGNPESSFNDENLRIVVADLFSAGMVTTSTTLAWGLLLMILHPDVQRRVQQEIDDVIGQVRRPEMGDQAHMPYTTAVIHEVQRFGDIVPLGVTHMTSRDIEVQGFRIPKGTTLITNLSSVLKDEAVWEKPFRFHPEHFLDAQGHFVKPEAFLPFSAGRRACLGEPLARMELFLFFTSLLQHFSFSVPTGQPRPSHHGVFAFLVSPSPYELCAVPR
Cytochrome P450 2C9, sequence (P11712 whole entry): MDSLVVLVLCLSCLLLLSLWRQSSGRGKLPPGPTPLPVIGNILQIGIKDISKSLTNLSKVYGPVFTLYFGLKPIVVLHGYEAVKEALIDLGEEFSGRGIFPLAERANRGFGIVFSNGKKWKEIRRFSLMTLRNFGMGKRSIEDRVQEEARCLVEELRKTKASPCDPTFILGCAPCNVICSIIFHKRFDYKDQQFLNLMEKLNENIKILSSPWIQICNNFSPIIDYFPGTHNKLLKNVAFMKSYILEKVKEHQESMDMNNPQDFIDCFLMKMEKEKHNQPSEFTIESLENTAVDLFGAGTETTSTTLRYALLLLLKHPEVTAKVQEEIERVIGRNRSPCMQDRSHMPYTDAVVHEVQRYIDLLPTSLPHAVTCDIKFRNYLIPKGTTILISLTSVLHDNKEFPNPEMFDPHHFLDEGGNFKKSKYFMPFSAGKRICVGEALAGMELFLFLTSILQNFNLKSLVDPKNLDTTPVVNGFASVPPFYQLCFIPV

In the case of `Cc1nnc(C2CC2)n1[C@@H]1C[C@H]2CC[C@@H](C1)N2CC[C@H](NC(=O)C1CCC(F)(F)CC1)c1ccsc1`, the IC50 [1] is reported as 2.6 nM.

`Cc1ccc([C@H](CCN2[C@@H]3CC[C@H]2C[C@H](n2c(C)nnc2C(C)C)C3)NC(=O)c2ccccc2)s1` showed an IC50 [1] of 51.7 nM.

Work on `Cc1nnc(C(C)C)n1[C@@H]1C[C@H]2CC[C@@H](C1)N2CC[C@H](NC(=O)C1CCC(F)(F)CC1)c1ccc(Cl)s1` yielded an IC50 [1] of 12 nM.

`Cc1nnc(C(C)C)n1[C@@H]1C[C@H]2CC[C@@H](C1)N2CC[C@H](NC(=O)C1CCC(F)(F)CC1)c1ccc(F)nc1` gave an IC50 [1] of 252 nM.

In the case of `Cc1nnc(C2CC2)n1[C@@H]1C[C@H]2CC[C@@H](C1)N2CC[C@H](NC(=O)C1CCC(F)(F)CC1)c1cccs1`, the IC50 [1] is reported as 2.9 nM.

In the case of `Cc1nnc(C(C)C)n1[C@@H]1C[C@H]2CC[C@@H](C1)N2CC[C@H](NC(=O)C1CCC(F)(F)CC1)c1cccs1`, the IC50 [1] is reported as 9.1 nM, the CC50 at 48 h [2] is reported as over 200000 nM and the Cmax [3] is reported as 266 ng/mL. The Tmax [4] was 4 h, the half-life [5] was 2.1 h and the AUC(0-inf) [6] was 1110 ng·h/mL. It also gave an MRT [7] of 3.3 h, a bioavailability [8] of 7.8% and a Cmax [9] of 6840 ng/mL. It also gave a Tmax [10] of 0.25 h, a half-life [11] of 0.77 h and an AUC(0-inf) [12] of 7050 ng·h/mL. It also gave an MRT [13] of 0.7 h, a clearance [14] of 23.7 mL/min/kg and an IC50 [15] of 3500 nM. It also gave an IC50 (Cytochrome P450 1A2) of over 25000 nM, an IC50 (Cytochrome P450 2C9) of over 25000 nM and an IC50 (Cytochrome P450 2C19) of over 25000 nM. The IC50 (Cytochrome P450 2D6) was over 25000 nM, the IC50 (Cytochrome P450 3A4 [16]) was over 25000 nM and the IC50 (Cytochrome P450 3A4 [17]) was over 25000 nM. It also gave a selectivity ratio (in vitro [18]) of over 55000, a selectivity ratio (in vitro [19]) of 92000 and a selectivity ratio (in vitro [20]) of 28000. It also gave a selectivity ratio (in vitro [21]) of 56000, a selectivity ratio (in vitro [22]) of 9400 and a selectivity ratio (in vitro [23]) of 100000. For the same molecule, the selectivity ratio (in vitro [24]) was 99000, the IC50 [25] was 3.6 nM and the IC50 [26] was 2.9 nM. The IC50 [27] was 13.1 nM, the IC50 [28] was 4.8 nM and the IC50 [29] was 28.5 nM. It also gave an IC50 [30] of 3.6 nM and an IC50 [31] of 6.2 nM.

Work on `Cc1nnc(C(C)C)n1[C@@H]1C[C@H]2CC[C@@H](C1)N2CC[C@H](NC(=O)C1CCC(F)(F)C1)c1cccs1` (stereo not given in full) yielded an IC50 [1] of 2.3 nM.

With `Cc1nnc(C(C)C)n1[C@@H]1C[C@H]2CC[C@@H](C1)N2CC[C@H](NC(=O)[C@@H]1CCC(=O)N1)c1cccs1` the IC50 [1] was 20.6 nM.

For `Cc1ccc([C@H](CCN2[C@@H]3CC[C@H]2C[C@H](n2c(C)nnc2C(C)C)C3)NC(=O)C2CCC(F)(F)CC2)s1`, the IC50 [1] was 2.8 nM, the CC50 at 48 h [2] was over 200000 nM and the Cmax [3] was 580 ng/mL. It also gave a Tmax [4] of 2 h, a half-life [5] of 32.8 h and an AUC(0-inf) [6] of 1870 ng·h/mL. The MRT [7] was 4.8 h, the bioavailability [8] was 40.1% and the Cmax [9] was 1690 ng/mL. For the same molecule, the Tmax [10] was 0.25 h, the half-life [11] was 1.6 h and the AUC(0-inf) [12] was 2330 ng·h/mL. The MRT [13] was 2.3 h, the clearance [14] was 71.7 mL/min/kg and the IC50 [15] was 3380 nM. The IC50 (Cytochrome P450 1A2) was over 25000 nM, the IC50 (Cytochrome P450 2C9) was over 25000 nM and the IC50 (Cytochrome P450 2C19) was over 25000 nM. For the same molecule, the IC50 (Cytochrome P450 2D6) was over 25000 nM, the IC50 (Cytochrome P450 3A4 [16]) was 10900 nM and the IC50 (Cytochrome P450 3A4 [17]) was 23400 nM. The selectivity ratio (in vitro [18]) was over 17000, the selectivity ratio (in vitro [19]) was over 29000 and the selectivity ratio (in vitro [20]) was over 11000. It also gave a selectivity ratio (in vitro [21]) of over 1600, a selectivity ratio (in vitro [22]) of over 833 and a selectivity ratio (in vitro [23]) of over 18000. It also gave a selectivity ratio (in vitro [24]) of over 13000, an IC50 [25] of 11.5 nM and an IC50 [26] of 6.7 nM. It also gave an IC50 [27] of 18.8 nM, an IC50 [28] of 126 nM and an IC50 [29] of 240 nM. For the same molecule, the IC50 [30] was 11.4 nM and the IC50 [31] was 14.9 nM.

For `Cc1nnc(C(C)C)n1[C@@H]1C[C@H]2CC[C@@H](C1)N2CC[C@H](NC(=O)C1CC(F)(F)C1)c1cccs1`, the IC50 [1] was 2.6 nM.

Work on `Cc1nnc(C(C)C)n1[C@@H]1C[C@H]2CC[C@@H](C1)N2CC[C@H](NC(=O)C1CCC(F)(F)CC1)c1cccnc1` yielded an IC50 [1] of 82.6 nM, a CC50 at 48 h [2] of over 100000 nM and a selectivity ratio (in vitro [18]) of over 65.8. It also gave an IC50 [25] of 1520 nM.

Molecule `Cc1ccc([C@H](CCN2[C@@H]3CC[C@H]2C[C@H](n2c(C)nnc2C(C)C)C3)NC(=O)Cc2ccc(F)cc2)s1` has an IC50 [1] of 33 nM.

Work on `COc1ccc([C@H](CCN2[C@@H]3CC[C@H]2C[C@H](n2c(C)nnc2C(C)C)C3)NC(=O)C2CCC(F)(F)CC2)s1` yielded an IC50 [1] of 6.8 nM.

In the case of `Cc1ccc([C@H](CCN2[C@@H]3CC[C@H]2C[C@H](n2c(C(C)C)nnc2C(F)(F)F)C3)NC(=O)C2CCC(F)(F)CC2)s1`, the IC50 [1] is reported as 4 nM.
